The test system of this experiment is T1, CtHCT (CtNewGene_3476), recombinant hydroxycinnamoyl transferase.
T1 construct: gene HCT; HXXXD 156-160, DFGWG 379-383
Briefly: HPLC product assay, Lineweaver-Burk. The class given is biochemical, Carthamus tinctorius. The following applies: pH 7.5, 35 °C, 1 mM Cu2+. The source says: HPLC product assay, Lineweaver-Burk on CtHCT (CtNewGene_3476), recombinant hydroxycinnamoyl transferase

In general, Km refers to the concentration of substrate that gives half-maximal velocity. Turning to `CC(C)(COP(=O)(O)OP(=O)(O)OC[C@H]1O[C@@H](n2cnc3c(N)ncnc32)[C@H](O)[C@@H]1OP(=O)(O)O)[C@@H](O)C(=O)NCCC(=O)NCCSC(=O)/C=C/c1ccc(O)cc1` [p-CoCOA, p-Coumaroyl-CoA], the Km (saturating quinic acid) stood at 9.41 µM. Same read-out and setting: the value for `CC(C)(COP(=O)(O)OP(=O)(O)OC[C@H]1O[C@@H](n2cnc3c(N)ncnc32)[C@H](O)[C@@H]1OP(=O)(O)O)[C@@H](O)C(=O)NCCC(=O)NCCSC(=O)/C=C/c1ccc(O)c(O)c1` [C-COA, Caffeoyl-CoA] was 32.6 µM. `O=C(O)C1=C[C@@H](O)[C@@H](O)[C@H](O)C1` [SkA, Shikimic acid]: the Michaelis constant (Km) (saturating p-coumaroyl-CoA) was 18.4 µM. `O=C(O)[C@]1(O)C[C@@H](O)[C@@H](O)[C@H](O)C1` [QA, Quinic acid]: the Km (saturating p-coumaroyl-CoA) came out at 7.11 µM.

For the origin of these results see article PMC10931740, “Uncovering the Role of Hydroxycinnamoyl Transferase in Boosting Chlorogenic Acid Accumulation in Carthamus tinctorius Cells under Methyl Jasmonate Elicitation” (International Journal of Molecular Sciences, 2024).
